Experimental data taken from US20230266303A1, “SYSTEM” (GTINVENT LIMITED, priority 2020, published 2023).
Where “and” joins values, the source holds several entries; their conditions need not be identical. Identical values can stand only once.

Legend:
Type in all cases: cell-based, human
[1] = test system: endogenous tau in dSH-SY5Y cells; assay: Immunofluorescence of endogenous tau (AT180, AT8, Tau-1) after dGAE-488 exposure; conditions: 1 μM soluble dGAE-488, 24 h
Procedure: Cell culture medium was aspirated from dSH-SY5Y cells and washed once with PBS. Cells were fixed in 4% (w/v) paraformaldehyde (PFA) in PBS for 15 minutes followed by three washes in PBS. For permeabilization, the cells were incubated in 0.25% (v/v) Triton X-100 in PBS for 10 minutes. Cells were blocked in 2% (w/v) BSA in PBS for 1 h, followed by three washes in PBS. Primary antibodies diluted in 2% (w/v) BSA in PBS and were incubated with the cells for 1 h. The primary antibodies and dilutions used were; AT180 (anti-pT231) (1:250) (Thermo Scientific), AT8 (anti-pS202-T205) (1:500) (Thermo Scientific) and Tau1 (dephosphorylated tau at S195, 198, 199 and 202) (Merck Millipore). Cells were incubated with goat anti-mouse-Alexa Fluor® 594 (1:1000) (Invitrogen™, Thermo Scientific) diluted in 2% (w/v) BSA in PBS for 1 h in the dark. Cells were washed 3 times in PBS between antibody incubations. Cells were mounted onto glass slides using Prolong Gold mounting medium containing 4,6-diamidino-2-phenylindole (DAPI). […]
(§1) FIJI (https://fiji.sc) imaging processing package (J. Schindelin et al., Nat. Methods, vol. 9, no. 7, pp. 676-682, (2012)) was used for all image analysis. For quantification of fluorescence intensities, images were Z-projected to maximal intensity. […] Area-integrated intensity and mean grey value were measured as well as three selections from around the cell with no fluorescence (background). The corrected total cell fluorescence (CTCF) was then calculated using the equation: […]
Therefore, it was further investigated whether internalised soluble dGAE-488 may be capable of altering the aggregation or phosphorylation state of endogenous tau. […] Cells were examined for colocalisation of internalised dGAE-488 and endogenous tau and the fluorescence intensity of labelled tau in the cell body was quantified in individual cells for each antibody. […] We have previously shown that tau dephosphorylated between amino acids 192-204 detected using Tau-1 antibody, is found in the nucleus in dSH-SY5Y cells (Maina et al., Acta Neuropath. Comm, Vol. 6 No. 70, pp 1-13 (2018)).

[2] = test system: acidic vesicles (lysosomes and endosomes) in dSH-SY5Y cells; assay: LysoTracker labelling of acidic organelles and colocalisation with dGAE-488; conditions: soluble dGAE-488, 24 h; buffer 100±5.23%
Procedure: Cells were plated on 35-mm dishes on a 1.5-mm coverslip (Mattek). Following differentiation, dGAE-488 (5 μM) was added to the cells for 24 h. For labelling lysosomes and endosomes, LysoTracker® red (Life Technologies) was diluted in culture media at a final concentration of 50 nM and incubated for 90 mins before imaging using a Leica SP8 confocal microscope.
All confocal microscopy imaging was carried using a Leica SP8 confocal microscope. The instrument setting used PMT 3 and PMT Trans channels/lasers and images were acquired with a HC PLAPoCs2 63×/1.40 oil-immersion objective lens. Samples were scanned sequentially to prevent spectral bleed through. All images were collected as Z-stacks for all channels using a step size of 0.5 μm. Five to ten Z-stacks were taken for each sample and each experiment was repeated three times or more. […]
Intracellular fluorescent punctate particles were observed within the cytoplasm, close to the nucleus after 24 h of exposure of neurons to soluble dGAE-488. […] There was a significant increase in the intensity of the LysoTracker® fluorescence in cells exposed to soluble dGAE-488 compared to buffer-treated control cells (211.9±9.9%, p<0.0001; FIG. 6Ai, Aii).

dSH-SY5Y cells = assay: Internalisation of dGAE-488 into cells by confocal microscopy
Procedure: Undifferentiated SH-SY5Y human neuroblastoma cells were grown in Dulbecco's Modified Eagle Medium/Nutrient Mixture F-12 (DMEM/F-12) supplemented with 10% Foetal Calf Serum (FCS), 1% Penicillin/Streptomycin (P/S) and 1% L-glutamine. For differentiation, SH-SY5Y cells were plated at a density of 50,000 cells per well in 24-well plates or 300,000 cells per well in 6-well plates. For immunofluorescence, cells were plated onto Menzel-Gläser coverslips (Thermo Scientific). For live-cell imaging, cells were plated on 35-mm dishes on a 1.5-mm coverslip (Mattek). On the first day of differentiation, media was replaced with low-serum culture media (DMEM/F-12 containing 1% FCS, 1% P/S and 1% L-glutamine) containing 10 μM all-trans retinoic acid (RA) (Sigma-Aldrich) and cells were incubated for 48 h. On day 3, this process was repeated with fresh RA and cells were incubated for a further 48 h. On day 5, the cells were washed once in serum-free culture media to remove traces of serum. […] Differentiated cells (dSH-SY5Y) were ready to use for experiments on day 7. […]
as §1
For quantification of internalised dGAE-488, a focal plane from the middle of the cell that contained maximal DAPI fluorescence was selected and subjected to analysis.
The uptake of soluble and aggregated dGAE into dSH-SY5Y cells was investigated in order to examine whether aggregation state affects the efficiency of internalisation. The labelled dGAE-488 form was used to permit uptake to be visualised and measured having corrected for total cell fluorescence. […]

dGAE-488: dGAE covalently labelled with Alexa Fluor 488
AT8 (pS202-T205) fluorescence intensity as a percentage of buffer-treated cells ([1]; buffer 100±3.51%): 270.7±22.5% | AT180 (pT231) fluorescence intensity as a percentage of buffer-treated cells ([1]; buffer 100±5.2%): 143.5±7.8% | Tau-1 (dephosphorylated tau) fluorescence intensity as a percentage of buffer-treated cells ([1]; buffer 100±7.3%): 59.17±3.6% | LysoTracker fluorescence intensity as a percentage of buffer-treated cells [2]: 211.9±9.89% and 211.9±9.9% | 488 fluorescence intensity in the cell body (internalisation) (dSH-SY5Y cells; aggregated (72 h agitated) dGAE-488, 1 μM, 24 h, mean±SEM, b194 prints AU per cell): 474.1±95.97 AU and 474±96 AU | incubation time at which internalised protein is detected in cells (dSH-SY5Y cells; soluble form, 5 μM dGAE-488, live confocal imaging t=0 h to 14 h): 2 h
